Laboratory results: patent US6436911B1, “IL-12 production inhibitor” (Seikagaku Corporation, priority 1999, dated 2002)

Experiments:
[1] = system: peritoneal macrophages isolated from C3H/HeN mice; test: IL-12 production in peritoneal macrophages from C3H/HeN mice (LPS + IFN-γ); assay type: cell-based; settings: LPS 200 ng/ml, IFN-γ 2 U/ml, 24 hours, various L3 concentrations (FIG. 14)
Experimental: Ice-cooled phosphate buffered saline (PBS) was injected into abdominal cavities of C3H/HeN mice. After the abdomen of each mouse was massaged, the PBS was collected and centrifuged to obtain macrophages. A cell suspension was prepared by suspending the obtained macrophages in RPMI1640 medium (Sigma) containing 200 ng/ml of LPS, 2 U/ml of recombinant mouse interferon-γ (IFN-γ) and 10% fetal bovine serum at a concentration of 1×10^6 cells/ml. 100 μl of the cell suspension was dispensed on a 96-well flat-bottom plate and further 100 μl of L3 solution of which concentration was adjusted to be twice the final concentration in the RPMI1640 medium was added thereto. Then, the cells were cultured at 37° C. in the presence of 5% CO2 for 24 hours.
(§1) Subsequently, the plate was centrifuged to collect the culture supernatant. The IL-12 concentration in the supernatant was measured as described above.

[2] = system: peritoneal macrophages isolated from C57BL/6 mice; test: LPS-stimulated IL-12 p70 production in peritoneal macrophages from C57BL/6 mice; assay type: cell-based
[3] = system: IL-12; test: Plasma IL-12 level (IL-12 p70 ELISA) in MRL-lpr/lpr mice after administration; assay type: in vivo; settings: day before autopsy
From the text: Plasma IL-12 levels were examined using MRL-lpr/lpr mice treated with and without L4. Macrophages from MRL-lpr/lpr mice are known to markedly produce IL-12 and their serum IL-12 level is high (J. Exp. Med., 183, pp. 1447-1459 (1996)).
(§2) MRL lpr/lpr mice, C57BL/6 mice and ICR mice as normal controls were purchased from Japan Charles River Co., Ltd. and preliminarily maintained for several weeks before divided into groups. Blood was collected from the orbital venous plexus, and they were allocated according to the plasma creatinine level (CRE) as a first marker so that there would be no difference in the average value and the standard deviation for the creatinine level among the groups. They were also grouped so that there would be no difference in the plasma nitrogen level (BUN), white blood cell count (WBC), platelet count (PLT) and weight between groups as far as possible.
The test substances were administered from the next day of the grouping. […]
Blood was collected from the orbital venous plexus at the time of the grouping and on the day before the autopsy. The IL-12 concentration in blood plasma was measured by using an IL-12 p70 ELISA kit (Endogen, Inc.).
(§3) The average value and the standard deviation were calculated for the measured values obtained as above and the statistical significance was analyzed by Williams' multiple comparison test. […]

[4] = system: synovial cells collected from human rheumatoid arthritis patients; test: IL-12 p70 production in synovial cells from rheumatoid arthritis patients (LPS + IFN-γ); assay type: cell-based; settings: LPS 500 ng/ml, IFN-γ 50 U/ml
Experimental: A cell suspension was prepared by suspending synovial cells collected from human rheumatoid arthritis patients in RPMI1640 medium (Sigma) containing 500 ng/ml of LPS, 50 U/ml of recombinant mouse interferon-γ (IFN-γ) and 10% fetal bovine serum at a concentration of 1×10^6cells/ml.
100 μl of the aforementioned cell suspension was dispensed to a 96-well flat-bottom plate and further 100 μl of L4 solution of which concentration was adjusted to be twice the final concentration in the RPMI1640 medium was added thereto. Then, the cells were cultured at 37° C. in the presence of 5% CO2 for 24 hours.
as §1

[5] = system: MRL-lpr/lpr mice; test: Biochemical blood test: plasma creatinine (CRE) and urea nitrogen (BUN) in MRL-lpr/lpr mice; assay type: in vivo; settings: Example 3; L4 3.2 mg/kg i.n.; 6 weeks; day before autopsy (FIG. 4)
Experimental: 9-Week old MRL lpr/lpr mice, C57BL/6 mice and ICR mice were purchased from Japan Charles River Co., Ltd. and preliminarily maintained for 6 weeks before divided into groups. The groups used were as follows.
Each of the test substance was dissolved in distilled water at a predetermined concentration to prepare a solution to be administered. The solution was intermittently administered 3 times per week for 6 weeks (total […]). Observation was performed for 45 days from the start of administration through the autopsy. Other conditions and methods were the same as those of Example 2.
Blood was collected from the orbital venous plexus and plasma creatinine level (CRE) and plasma urea nitrogen level (BUN) were measured by using an automatic analyzer for clinical chemistry (COBAS MIRA S: Nippon Roche) at the time of the grouping and on the day before the autopsy.

[6] = system: peritoneal macrophages isolated from MRL mice; test: LPS-stimulated IL-12 p70 production in peritoneal macrophages from MRL lpr/lpr mice; assay type: cell-based; settings: for IL-12 p70 production, simultaneous treatment with LPS and test substance: LPS 100 ng/ml, various concentrations, 8-week-old and 39-week-old MRL mice (FIG. 6; L4L4 FIG. 12)
Experimental: Five to seven milliliters of ice-cooled Hank's balanced salt solution was injected in the abdominal cavities of 8- to 39-week-old MRL lpr/lpr mice and extracted 5 minutes later to collect resident peritoneal cells. The collected cells were cultured overnight in RPMI medium contained in a 96-well flat-bottom plate at 37° C. in the presence of 5% CO2. After the cultivation, non-adherent cells were removed and adherent cells were used as peritoneal macrophages for the experiment.
The cells were treated with lipopolysaccharide (LPS, List Biological Laboratories, Inc.) for 24 hours to stimulate IL-12 production. The concentration of IL-12 p70 in the cell culture supernatant was measured by using an IL-12 p70 ELISA kit (Endogen, Inc.) to evaluate the IL-12 production. As for the measured values, the average value and the standard deviation were obtained. Unless otherwise mentioned, the statistical significance was examined by the Williams' multiple comparison test.
The stimulation was performed for 24 hours in the medium containing LPS (100 ng/ml) and various concentrations of L4, and then the IL-12 production was evaluated.
Macrophages were treated with 100 ng/ml of LPS for 0, 2 or 6 hours, and then the medium was replaced with a fresh medium containing 1000 ng/ml of L4 or a fresh medium only (L4(-)) (consequently, IL-12 produced by the pretreatment was removed). 24 hours after the replacement of the medium, the IL-12 production was evaluated.
First, macrophages were treated with L4 at various concentrations for 24 hours and the medium was replaced with a medium containing 100 ng/ml of LPS. 24 hours after the replacement of the medium, the IL-12 production was evaluated.
The IL-12 production in the macrophages of MRL-lpr/lpr mice, pretreated with or without 1000 ng/ml of L4 for 24 hours then treated with 100 ng/ml of LPS for 24 hours (L4 pretreatment), and the treated with 100 ng/ml LPS together with or without 1000 ng/ml of L4 (simultaneous treatment), were compared. In FIG. 11, * and ** indicate that there was statistical significance at levels of p<0.05 and p<0.01, respectively, according to the Student's t-test.

[7] = system: MRL-lpr/lpr mice; test: Hematological test: white blood cell count (WBC) in blood of MRL-lpr/lpr mice; assay type: in vivo; settings: day before autopsy
From the text: as §2
The test substances were administered from the next day of the grouping. Each of the test substances was dissolved in distilled water at a predetermined concentration to prepare a solution to be administered. The solution was intermittently administered 3 times per week for 4 weeks (total 12 doses). […]
Blood was collected from the orbital venous plexus at the time of the grouping and on the day before the autopsy. The white blood cell count (WBC) was measured by using an automatic cytometer for multiple test items (Sysmex K-2000: Toa Medical Electronics).
as §3

Compound	IL-12 production of macrophages [1]	IL-12 p70 production, stimulation with LPS after pretreatment with L4 ([2]; C57BL/6 mice, pretreated with L4 for 36 hours (FIG. 10))	IL-12 p70 production, simultaneous treatment with LPS and L4 ([2]; LPS 100 ng/ml, 24 hours, various concentrations of L4, C57BL/6 mice (FIG. 7))	IL-12 level in plasma ([3]; Example 2, L4 1.6 mg/kg i.n. and 80 mg/kg p.o., 3 times per week for 4 weeks, p<0.05/p<0.01 (FIG. 2))	IL-12 level in plasma ([3]; Example 3, L4 3.2 mg/kg i.n., 3 times per week for 6 weeks, p<0.01 (FIG. 5))	IL-12 production in synovial cells at 1000 ng/ml ([4]; 1000 ng/ml L4, 24 hours (FIG. 13))	IL-12 production in synovial cells ([4]; 24 hours, various L4 concentrations (FIG. 13))	plasma creatinine level (CRE) [5]	plasma urea nitrogen level (BUN) [5]	IL-12 p70 production, L4 pretreatment compared with simultaneous treatment ([6]; 1000 ng/ml L4, 100 ng/ml LPS, 24 hours (FIG. 11))	IL-12 p70 production, stimulation with LPS after pretreatment with L4, high doses ([6]; L4 100 ng/ml or more, 24 hours, then LPS 100 ng/ml 24 hours (FIG. 9))	IL-12 p70 production, stimulation with LPS after pretreatment with L4 ([6]; L4 various concentrations 24 hours, then LPS 100 ng/ml 24 hours (FIG. 9))	IL-12 p70 production, treatment with L4 after preliminary stimulation with LPS ([6]; LPS 100 ng/ml for 2 and 6 hours, then 1000 ng/ml L4, 24 hours (FIG. 8))	IL-12 p70 production, simultaneous treatment with LPS and test substance ([6]; 24 hours)	white blood cell count (WBC) in blood ([7]; Example 2, low dose L4 administered groups, 3 times per week for 4 weeks, vs DW group, p<0.05 (FIG. 1))	white blood cell count (WBC) in blood ([7]; Example 3, L4 3.2 mg/kg i.n., 3 times per week for 6 weeks, p<0.05 (FIG. 3))
CC(=O)N[C@H]1C(O)O[C@H](CO)[C@@H](O[C@@H]2O[C@H](COS(=O)(=O)O)[C@H](O)[C@H](O)[C@H]2O)[C@@H]1O (stereo partly drawn) [L3, Gal(6S)β1-4GlcNAc]	inhibited IL-12 production of macrophages in a dose-dependent manner	–	–	–	–	–	–	–	–	–	–	–	–	–	–	–
CC(=O)N[C@H]1C(O)O[C@H](COS(=O)(=O)O)[C@@H](O[C@@H]2O[C@H](COS(=O)(=O)O)[C@H](O)[C@H](O)[C@H]2O)[C@@H]1O (stereo partly drawn) [L4, Gal(6S)β1-4GlcNAc(6S)]	–	The same results were also obtained	The same result was also obtained	significant inhibition of the increase in IL-12	significant inhibition of the increase in the IL-12	almost halved	tendency that addition of L4 inhibited IL-12 production	significant decrease	significant decrease	inhibits IL-12 production more efficiently compared with the simultaneous treatment	almost completely inhibited	L4 pretreatment inhibits the IL-12 production	Inhibition of the IL-12 production by L4 was also observed	dose-dependent inhibitory effect on the IL-12 production	significant inhibition of the increase in WBC	significant inhibition of the increase in WBC
CC(=O)NC1C(O)OC(COS(=O)(=O)[O-])C(OC2OC(COS(=O)(=O)[O-])C(O)C(OC3OC(COS(=O)(=O)[O-])C(OC4OC(COS(=O)(=O)[O-])C(O)C(O)C4O)C(O)C3NC(C)=O)C2O)C1O.[Na+].[Na+].[Na+].[Na+] [L4L4, Gal(6S)β1-4GlcNAc(6S)β1-3Gal(6S)β1-4GlcNAc(6S)]	–	–	–	–	–	–	–	–	–	–	–	–	–	The same result was obtained	–	–
